Results from article PMC13303826, “Nicotinonitrile based dual inhibitors of tubulin and topoisomerase II exhibit potent anticancer activity” (Scientific Reports, 2026).

Tests used:
[1] = system: MCF7 cells; assay: LDH release cytotoxicity assay, MCF7; type: cell-based; settings: Homo sapiens, 48 h, mean ± SD, read-out: In vitro cytotoxicity IC50 µM ± SD, MCF7
Description: (§1) HepG2 (Human liver carcinoma), HCT116 (human colorectal carcinoma), MCF7 (human breast adenocarcinoma), and the normal human skin fibroblast (BJ-1) cell lines were purchased from the american type culture collection (Rockville, MD, USA) and maintained in RPMI-1640 medium which was supplemented with 10% heat-inactivated FBS, 100U/ml penicillin and 100U/ml streptomycin. The cells were grown at 37 °C in a humidified atmosphere of 5% CO2. All experiments were conducted thrice in triplicate (n = 3). All the values were represented as means ± SD. Significant differences between the means of parameters as well as IC50s were determined by probit analysis using SPSS software program (SPSS Inc., Chicago, IL).
(§2) To determine the effect of each synthesized compound on membrane permeability in HepG2, MCF-7 and HCT116 cancer cell lines as well as BJ-1 normal cell line, a lactate dehydrogenase (LDH) release assay was used[29]–[33]. The cells were seeded in 24-well culture plates at a density of 1 × 10^4 cells/well in 500 µL volume and allowed to grow for 18 h before treatment. After treatment with a series of different concentrations of each compound or DOX (positive control), the plates were incubated for 48 h. Then, the supernatant (40 µL) was transferred to a new 96 well to determine LDH release and 6% triton X-100 (40 µL) was added to the original plate for determination of total LDH. An aliquot of 0.1 M potassium phosphate buffer (100 µL, pH 7.5) containing 4.6 mM pyruvic acid was mixed to the supernatant using repeated pipetting. Then, 0.1 M potassium phosphate buffer (100 µL, pH 7.5) containing 0.4 mg/mL reduced β-NADH was added to the wells. The kinetic changes were read for 1 min using ELISA microplate reader in absorbance at wavelength 340 nm. This procedure was repeated with 40 µL of the total cell lysate to determine total LDH. The percentage of LDH release was determined by dividing the LDH released into the media by the total LDH following cell lysis in the same well. The cell Passage numbers for MCF 7 = P13, Hep G2 = P15, HCT 116 = P 9.
(§3) All experiments were conducted in triplicate (n = 3). All the values were represented as mean ± SD. Significant differences between the means of parameters as well as IC50s were determined by probit analysis using SPSS software program (SPSS Inc., Chicago, IL).

[2] = system: HepG2 cells; assay: LDH release cytotoxicity assay, HepG2; type: cell-based; settings: Homo sapiens, 48 h, mean ± SD, read-out: In vitro cytotoxicity IC50 µM ± SD, HepG2
Description: as §1, §2, §3

[3] = system: HCT116 cells; assay: LDH release cytotoxicity assay, HCT116; type: cell-based; settings: Homo sapiens, HCT-116, 48 h, mean ± SD, read-out: In vitro cytotoxicity IC50 µM ± SD, HCT116
Description: as §1, §2, §3

[4] = system: beta-tubulin; assay: Inhibition of tubulin polymerization in MCF-7 cells (beta-tubulin SimpleStep ELISA); type: cell-based, human; settings: MCF7 cells, concentration not given
Text: Beta-tubulin in vitro simple step ELISA® (Enzyme-Linked Immunosorbent Assay) kit is designed for quantitative measurement of beta-tubulin protein in human cell and tissue homogenate extract samples.
The SimpleStep ELISA® employs an affinity tag labeled capture antibody and a reporter conjugated detector antibody which immunocapture the sample analyte in solution. This entire complex (capture antibody/analyte/detector antibody) is in turn immobilized via immunoaffinity of an anti-tag antibody coating the well. To perform the assay, samples or standards are added to the wells, followed by the antibody mix. After incubation, the wells are washed to remove unbound material. TMB development solution is added and during incubation is catalyzed by horseradish peroxidase (HRP), generating blue coloration. This reaction is then stopped by addition of stop solution completing any color change from blue to yellow. Signal is generated proportionally to the amount of bound analyte and the intensity is measured at 450 nm. Optionally, instead of the endpoint reading, development of TMB can be recorded kinetically at 600 nm. The concentration of beta-tubulin protein in the samples is determined by comparing the optical density (OD) of the samples to the standard curve. Each experiment was repeated two times (Table 2).

[5] = system: Topo II; assay: Inhibition of topoisomerase II in MCF-7 cells (TOP2B sandwich ELISA); type: cell-based, human; settings: MCF7 cells, concentration not given
Description: Mouse TOP2B/Topoisomerase II Beta ELISAKit (Sandwich ELISA) is designed for the quantitative measurement of Topo II enzyme.
This assay is based on the sandwich ELISA principle. Each well of the supplied microtiter plate has been pre-coated with a target specific capture antibody. Standards or samples are added to the wells, and the target antigen binds to the capture antibody. Unbound standard or sample is washed away. A biotin-conjugated detection antibody is then added which binds to the captured antigen. Unbound detection antibody is washed away. An avidin-horseradish peroxidase (HRP) conjugate is then added which binds to the biotin. Unbound avidin-HRP conjugate is washed away. A TMB substrate is then added which reacts with the HRP enzyme resulting in color development. A sulfuric acid stop solution is added to terminate color development reaction and then the optical density (OD) of the well is measured at a wavelength of 450 nm ± 2 nm. An OD standard curve is generated using known antigen concentrations; the OD of an unknown sample can then be compared to the standard curve to determine its antigen concentration. Each experiment was repeated two times (Table 3).

[6] = system: BJ1 normal cells; assay: LDH release cytotoxicity assay, normal skin fibroblasts BJ1; type: cell-based, human; settings: non-tumor BJ1 fibroblasts
Description: as §1, §2, §3

| Structure (SMILES) | IC50 [1] [µM] | IC50 [2] [µM] | IC50 [3] [µM] | tubulin polymerization % inhibition [4] [%] | Topo II % inhibition [5] [%] | Cytotoxicity / selectivity toward BJ1 normal cells (in words) [6] |
| --- | --- | --- | --- | --- | --- | --- |
| Cc1cc(-c2ccco2)c(C#N)c2nnnn12 [Compound 33, 7-(furan-2-yl)-5-methyltetrazolo[1,5-a]pyridine-8-carbonitrile] | 2.6 ± 0.2 | 25.2 ± 2.5 | 40.7 ± 3.9 | 68.9 | – | – |
| COc1cc(-c2cc(-c3cc(OC)c(OC)c(OC)c3)n3nnnc3c2C#N)cc(OC)c1OC [Compound 28, 5,7-bis(3,4,5-trimethoxyphenyl)tetrazolo[1,5-a]pyridine-8-carbonitrile] | 3 ± 0.2 | 29.9 ± 3.1 | 78.6 ± 5.9 | – | – | – |
| COc1cc(-c2cc(-c3cc(OC)c(OC)c(OC)c3)c(C#N)c(N=P(c3ccccc3)(c3ccccc3)c3ccccc3)n2)cc(OC)c1OC [Compound 36, 4,6-Bis(3,4,5-trimethoxyphenyl)-2-((triphenyl-λ^5-phosphaneylidene)amino)nicotinonitrile] | 3 ± 0.1 | 25.2 ± 2.1 | 41.7 ± 4.1 | – | – | – |
| COc1ccc(-c2cc(-c3cc(OC)c(OC)c(OC)c3)c(C#N)c3nnnn23)cc1OC [Compound 27, 5-(3,4-dimethoxyphenyl)-7-(3,4,5-trimethoxyphenyl)tetrazolo[1,5-a]pyridine-8-carbonitrile] | 2.5 ± 0.2 | 25.5 ± 2.4 | 60.1 ± 6.2 | 49.8 | – | – |
| COc1ccc(-c2cc(-c3cc(OC)c(OC)c(OC)c3)c(C#N)c(N=P(c3ccccc3)(c3ccccc3)c3ccccc3)n2)cc1OC [Compound 35, 6-(3,4-Dimethoxyphenyl)-4-(3,4,5-trimethoxyphenyl)-2-((triphenyl-λ^5-phosphaneylidene)-amino)nicotinonitrile] | 2.7 ± 0.1 | 32.4 ± 3.1 | 57.6 ± 4.1 | 61.9 | – | – |
| COc1ccc(-c2cc(-c3ccc(OC)c(OC)c3)nc(Cl)c2C#N)cc1 [Compound 23, 2-Chloro-6-(3,4-dimethoxyphenyl)-4-(4-methoxyphenyl)nicotinonitrile] | 2.6 ± 0.2 | 29.4 ± 2.3 | 49.1 ± 5.1 | – | – | – |
| COc1ccc(-c2cc(-c3cc(OC)cc(OC)c3)c(C#N)c(Cl)n2)cc1 [Compound 22, 2-Chloro-4-(3,5-dimethoxyphenyl)-6-(4-methoxyphenyl)nicotinonitrile] | 2.6 ± 0.2 | 25.3 ± 2.3 | 36.8 ± 3.5 | 70.9 | 42 | – |
| COc1cccc2c1C(=O)c1c(O)c3c(c(O)c1C2=O)C[C@@](O)(C(=O)CO)C[C@@H]3O[C@H]1C[C@H](N)[C@H](O)[C@H](C)O1 [DOX, doxorubicin, reference compound] | 2.8 ± 0.3 | 2.6 ± 0.2 | 12.5 ± 1.5 | – | 81.6 | – |
| COc1cc(OC)cc(-c2cc(-c3ccc(OC)c(OC)c3)nc(Cl)c2C#N)c1 [Compound 21, 2-Chloro-6-(3,4-dimethoxyphenyl)-4-(3,5-dimethoxyphenyl)nicotinonitrile] | 2.8 ± 0.2 | 12.3 ± 1.5 | 48.1 ± 4.2 | – | – | – |
| COc1cc(-c2cc(-c3ccco3)c(C#N)c(Cl)n2)cc(OC)c1OC [Compound 24, 2-Chloro-4-(furan-2-yl)-6-(3,4,5-trimethoxyphenyl)nicotinonitrile] | 2.5 ± 0.2 | 22.7 ± 2.1 | 49.3 ± 4.2 | 55.4 | 55.3 | – |
| COc1ccc(-c2cc(-c3ccc(OC)c(OC)c3)n3nnnc3c2C#N)cc1 [Compound 31, 5-(3,4-dimethoxyphenyl)-7-(4-methoxyphenyl)tetrazolo[1,5-a]pyridine-8-carbonitrile] | 3.1 ± 0.3 | 25.7 ± 2.4 | 31 ± 2.5 | – | – | – |
| COc1ccc(-c2cc(-c3cc(OC)c(OC)c(OC)c3)c(C#N)c(Cl)n2)cc1 [Compound 18, 2-Chloro-6-(4-methoxyphenyl)-4-(3,4,5-trimethoxyphenyl)nicotinonitrile] | 2.9 ± 0.2 | 26.2 ± 2.5 | 45.6 ± 4.1 | – | – | – |
| COc1ccc(-c2cc(-c3cc(OC)cc(OC)c3)c(C#N)c3nnnn23)cc1 [Compound 30, 7-(3,5-dimethoxyphenyl)-5-(4-methoxyphenyl)tetrazolo[1,5-a]pyridine-8-carbonitrile] | 3.2 ± 0.2 | 27.1 ± 2.2 | 40.5 ± 3.3 | – | – | – |
| COc1ccc(-c2cc(-c3cc(OC)c(OC)c(OC)c3)c(C#N)c(N=P(c3ccccc3)(c3ccccc3)c3ccccc3)n2)cc1 [Compound 34, 6-(4-Methoxyphenyl)-4-(3,4,5-trimethoxyphenyl)-2-((triphenyl-λ^5-phosphaneylidene)amino)-nicotinonitrile] | 5.1 ± 0.2 | 28.4 ± 2.3 | 49.9 ± 4.2 | – | – | – |
| COc1cc(OC)cc(-c2cc(-c3ccc(OC)c(OC)c3)nc(N=P(c3ccccc3)(c3ccccc3)c3ccccc3)c2C#N)c1 [Compound 37, 6-(3,4-Dimethoxyphenyl)-4-(3,5-dimethoxyphenyl)-2-((triphenyl-λ^5-phosphaneylidene)amino)-nicotinonitrile] | 2.6 ± 0.1 | 29.3 ± 2.5 | 36 ± 3.3 | 74.3 | 82.4 | – |
| COc1ccc(-c2cc(-c3cc(OC)c(OC)c(OC)c3)c(C#N)c(Cl)n2)cc1OC [Compound 19, 2-Chloro-6-(3,4-dimethoxyphenyl)-4-(3,4,5trimethoxyphenyl)nicotinonitrile] | 2.7 ± 0.2 | 24.1 ± 2.2 | 44.1 ± 4.7 | – | – | – |
| COc1cc(-c2cc(-c3ccco3)c(C#N)c(N=P(c3ccccc3)(c3ccccc3)c3ccccc3)n2)cc(OC)c1OC [Compound 40, 4-(Furan-2-yl)-6-(3,4,5-trimethoxyphenyl)-2-((triphenyl-λ^5-phosphaneylidene)amino)nicotino-nitrile] | 5.7 ± 0.2 | 27.7 ± 2.1 | 55.7 ± 4.9 | – | – | – |
| COc1cc(OC)cc(-c2cc(-c3ccc(OC)c(OC)c3)n3nnnc3c2C#N)c1 [Compound 29, 5-(3,4-dimethoxyphenyl)-7-(3,5-dimethoxyphenyl)tetrazolo[1,5-a]pyridine-8-carbonitrile] | 3.1 ± 0.3 | 27.1 ± 2.5 | 55.4 ± 5.1 | – | – | – |
| COc1ccc(-c2cc(-c3ccc(OC)c(OC)c3)nc(N=P(c3ccccc3)(c3ccccc3)c3ccccc3)c2C#N)cc1 [Compound 39, 6-(3,4-Dimethoxyphenyl)-4-(4-methoxyphenyl)-2-((triphenyl-λ^5-phosphaneylidene)amino)-nicotinonitrile] | 3 ± 0.1 | 12.6 ± 1.1 | 32.5 ± 3.2 | – | – | good selectivity |
| COc1cc(-c2cc(-c3ccco3)c(C)c3nnnn23)cc(OC)c1OC [Compound 32, 7-(furan-2-yl)-8-methyl-5-(3,4,5-trimethoxyphenyl)tetrazolo[1,5-a]pyridine] | 3 ± 0.3 | 28.2 ± 2.5 | 98 ± 8.6 | – | – | – |
